Three compounds from patent US20260308186A1, “STAT DEGRADERS AND USES THEREOF” (Recludix Pharma, Inc., priority 2023, published 2026) can be followed below.

One experiment addresses T1, pSTAT3 (Homo sapiens, UniProt P40763).
T1 construct: pY705-STAT3 MSD read-out
The experiment is described as follows: MSD-pSTAT-PBMC Assay, pSTAT3 (IL-6 stimulated PBMC). The experiment is classed as cell-based. From the text: Cryopreserved Peripheral Blood Mononuclear Cells (PBMC) are from AllCells. Recombinant Human IL-4 and IL-6 are from Peprotech. Mouse monoclonal anti-STAT3 antibody, rabbit monoclonal anti-pY705-STAT3 antibody, rabbit monoclonal Anti-pY641-STAT6 antibody, and lysis buffer are from Cell Signaling Technology (CST). Mouse monoclonal anti-STAT6 antibody is from BioLegend. Assay plates, blocker, and anti-rabbit secondary antibody are from Meso Scale Discovery (MSD).
Cryopreserved PBMCs were thawed out and allowed to recover overnight in IMDM+10% heat-inactivated FBS prior to plating 50,000 (STAT3) or 25,000 (STAT6) cells per well in 96-well U-bottom tissue culture plates. Cells were treated with compound for 3 hrs. then stimulated with 10 ng/mL IL-6 (STAT3) or 1 ng/mL IL-4 (STAT6) for 10 min. Cells were then spun down and washed with ice-cold PBS prior to lysing the cell pellet with 1× lysis buffer (CST) with 1×HALT protease and phosphatase inhibitor cocktail (Thermo). Lysates were transferred to and incubated overnight at 4° C. with shaking in QuickPlex 96-well high bind assay plates (MSD) pre-coated overnight with 30 μL per well of 0.6 μg/mL mouse monoclonal anti-STAT3 antibody (STAT3) or 2 μg/mL mouse monoclonal anti-STAT6 antibody (STAT6) in 1×PBS, and pre-blocked for 1 hour with 3% Blocker-A (MSD). Captured protein in the assay plates were then washed and probed with 25 μL per well of 0.25 μg/ml rabbit monoclonal anti-pY705-STAT3 antibody (STAT3) or 0.18 μg/ml rabbit monoclonal Anti-pY641-STAT6 antibody (STAT6) in 1% Blocker-A for 1 hour at room temperature with shaking, then washed and probed with 25 ul per well of 1 ug/ml Sulfo-TAG Labeled Goat Anti-Rabbit Antibody (MSD) in 1% Blocker-A for 1 hour at room temperature with shaking. Assay plates were then washed and 150 μL of 1× Read Buffer-T (MSD) was added to each well prior to reading on an SQ120 MSD Plate Reader. Assay signal from each sample was subtracted by the signal from unstimulated control wells and normalized to DMSO control wells. IC50 values were calculated using Graph Pad Prism Dose-Response Nonlinear Regression with variable slope. For both pSTAT3 and pSTAT6 A=≤100 nM; B=>100-1000 nM; C=>1000-3000 nM; and D=>3 μM.

The target of the next experiment is T2, pSTAT6 (Homo sapiens, UniProt P42226).
T2 construct: pY641-STAT6 MSD read-out
T2 sequence (P42226 1-847): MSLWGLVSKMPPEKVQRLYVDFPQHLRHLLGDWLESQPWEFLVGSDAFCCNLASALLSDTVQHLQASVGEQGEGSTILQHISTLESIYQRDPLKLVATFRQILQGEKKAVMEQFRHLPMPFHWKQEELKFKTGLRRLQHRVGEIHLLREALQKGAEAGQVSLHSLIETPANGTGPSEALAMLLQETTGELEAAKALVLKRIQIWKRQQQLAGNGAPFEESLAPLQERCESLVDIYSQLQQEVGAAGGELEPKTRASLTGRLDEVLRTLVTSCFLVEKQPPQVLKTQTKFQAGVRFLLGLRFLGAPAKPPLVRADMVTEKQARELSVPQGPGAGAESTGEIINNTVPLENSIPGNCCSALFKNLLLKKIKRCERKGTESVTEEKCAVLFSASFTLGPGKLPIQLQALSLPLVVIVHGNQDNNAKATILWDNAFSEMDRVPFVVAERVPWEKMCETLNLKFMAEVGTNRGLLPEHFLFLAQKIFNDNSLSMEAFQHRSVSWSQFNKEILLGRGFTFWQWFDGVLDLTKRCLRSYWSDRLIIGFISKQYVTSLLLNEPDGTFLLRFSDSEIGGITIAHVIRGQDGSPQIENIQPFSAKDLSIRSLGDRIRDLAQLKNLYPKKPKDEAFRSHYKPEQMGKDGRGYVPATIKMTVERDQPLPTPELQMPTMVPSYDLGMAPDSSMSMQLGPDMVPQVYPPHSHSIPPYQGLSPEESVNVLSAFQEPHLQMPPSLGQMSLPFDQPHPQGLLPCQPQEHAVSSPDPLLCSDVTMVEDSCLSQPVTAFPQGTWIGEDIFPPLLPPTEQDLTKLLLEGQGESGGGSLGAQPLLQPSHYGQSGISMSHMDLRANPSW
Kind of experiment: MSD-pSTAT-PBMC Assay, pSTAT6 (IL-4 stimulated PBMC). Type of experiment: cell-based. The essentials: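 Human PBMC were recovered overnight, treated 3 h with compound, then stimulated for 10 min with 10 ng/mL IL-6 (pSTAT3) or 1 ng/mL IL-4 (pSTAT6). Lysates were read by MSD sandwich immunoassay, with total STAT capture and pY705-STAT3 or pY641-STAT6 detection. Signal minus unstimulated wells was normalized to DMSO, and IC50 came from a variable-slope fit.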

The mark [1] stands for this setting: read-out: pSTAT3 IC50, compound 3 hrs, then 10 ng/mL IL-6 for 10 min, pY705-STAT3.
The mark [2] stands for this setting: read-out: pSTAT6 IC50, compound 3 hrs, then 1 ng/mL IL-4 for 10 min, pY641-STAT6.

Where two headings read alike, the source gives them in different places.

T1 sequence (P40763 whole entry): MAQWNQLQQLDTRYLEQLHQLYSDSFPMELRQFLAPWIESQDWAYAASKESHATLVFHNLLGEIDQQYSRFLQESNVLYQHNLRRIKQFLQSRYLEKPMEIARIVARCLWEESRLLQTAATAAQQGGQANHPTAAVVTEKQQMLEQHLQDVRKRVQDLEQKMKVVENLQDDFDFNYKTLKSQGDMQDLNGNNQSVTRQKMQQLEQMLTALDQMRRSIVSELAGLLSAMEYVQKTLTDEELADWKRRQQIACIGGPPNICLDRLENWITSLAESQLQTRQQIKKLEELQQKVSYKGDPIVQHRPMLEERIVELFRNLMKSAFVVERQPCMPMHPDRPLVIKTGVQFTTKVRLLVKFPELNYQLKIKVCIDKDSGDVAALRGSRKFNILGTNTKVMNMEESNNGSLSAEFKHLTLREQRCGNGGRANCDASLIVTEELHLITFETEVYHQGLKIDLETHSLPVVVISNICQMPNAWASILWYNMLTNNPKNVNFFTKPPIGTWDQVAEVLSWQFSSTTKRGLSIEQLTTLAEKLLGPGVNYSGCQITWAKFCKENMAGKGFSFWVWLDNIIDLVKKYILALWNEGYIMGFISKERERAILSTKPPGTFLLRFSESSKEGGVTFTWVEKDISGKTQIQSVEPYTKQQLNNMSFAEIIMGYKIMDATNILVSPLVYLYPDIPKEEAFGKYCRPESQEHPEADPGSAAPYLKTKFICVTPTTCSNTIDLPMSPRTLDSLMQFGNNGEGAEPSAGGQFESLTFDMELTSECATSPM

On to `Cc1ccc2onc(C(=O)N3CC[C@H]4CC[C@@H](C(=O)N(C)CCCCCCC#Cc5cccc6c5CN(C5CCC(=O)NC5=O)C6=O)N4C(=O)[C@@H](NC(=O)c4ccc5ccc(C(F)(F)P(=O)(OCCSC(=O)CC(C)C)OCCSC(=O)CC(C)C)cc5c4)C3)c2c1` (stereo partly drawn) [Compound 21, S,S′-(((((7-(((5S,8S,10aR)-8-((8-(2-(2,6-dioxopiperidin-3-yl)-1-oxoisoindolin-4-yl)oct-7-yn-1-yl)(methyl)carbamoyl)-3-(5-methylbenzo[d]isoxazole-3-carbonyl)-6-oxodecahydropyrrolo[1,2-a][1,5]diazocin-5-yl)carbamoyl)naphthalen-2-yl)difluoromethyl)phosphoryl)bis(oxy))bis(ethane-2,1-diyl)) bis(3-methylbutanethioate)], for which the IC50 at pSTAT3 (compound 3 hrs, then 10 ng/mL IL-6 for 10 min, pY705-STAT3, read-out: pSTAT3 IC50) is greater than 3 µM; at pSTAT6 (compound 3 hrs, then 1 ng/mL IL-4 for 10 min, pY641-STAT6, read-out: pSTAT6 IC50) it was less than 0.1 µM.
As to `CCCC(=O)SCCOP(=O)(OCCSC(=O)CCC)C(F)(F)c1ccc2ccc(C(=O)N[C@H]3CN(C(=O)c4n[nH]c5ccc(C)cc45)CC[C@H]4CC[C@@H](C(=O)NCCCCCCCCC(=O)N[C@H](C(=O)N5C[C@H](O)C[C@H]5C(=O)N[C@@H](C)c5ccc(-c6scnc6C)cc5)C(C)(C)C)N4C3=O)cc2c1` [Compound 8, S,S′-((((difluoro(7-(((5S,8S,10aR)-8-((9-(((S)-1-((2S,4R)-4-hydroxy-2-(((S)-1-(4-(4-methylthiazol-5-yl)phenyl)ethyl)carbamoyl)pyrrolidin-1-yl)-3,3-dimethyl-1-oxobutan-2-yl)amino)-9-oxononyl)carbamoyl)-3-(5-methyl-1H-indazole-3-carbonyl)-6-oxodecahydropyrrolo[1,2-a][1,5]diazocin-5-yl)carbamoyl)naphthalen-2-yl)methyl)phosphoryl)bis(oxy))bis(ethane-2,1-diyl)) dibutanethioate], the IC50 was greater than 3 µM on pSTAT3 (setting [1]) and 1 to 3 µM at pSTAT6 (setting [2]).
In the same order, the values of `CC(=O)N1CC[C@H]2CC[C@@H](C(=O)Nc3ccc(-c4ccc(NC(=O)CCCCCC#Cc5cccc6c5CN(C5CCC(=O)NC5=O)C6=O)cc4)cc3)N2C(=O)[C@@H](NC(=O)c2cc3cc(C(F)(F)P(=O)(OCOC(=O)C(C)(C)C)OCOC(=O)C(C)(C)C)ccc3[nH]2)C1` (stereo partly drawn) [Compound 4, ((((2-(((5S,8S,10aR)-3-acetyl-8-((4′-(8-(2-(2,6-dioxopiperidin-3-yl)-1-oxoisoindolin-4-yl)oct-7-ynamido)-[1,1′-biphenyl]-4-yl)carbamoyl)-6-oxodecahydropyrrolo[1,2-a][1,5]diazocin-5-yl)carbamoyl)-1H-indol-5-yl)difluoromethyl)phosphoryl)bis(oxy))bis(methylene) bis(2,2-dimethylpropanoate)] are 1 to 3 µM and greater than 3 µM.
